Reference: patent US20170157013A1, “Metal Amino Acid Complexes for Bacterial Aggregation” (Colgate-Palmolive Company, priority 2015, published 2017)

Columns and labels:
[1] = tested on: oral bacteria in stimulated whole saliva; assay: Aggregation of oral bacteria in stimulated whole saliva, culture dish wells; format: cell-based, human; conditions: 15 minutes at room temperature
Method: Stimulated whole saliva from a human volunteer was harvested and mixed either with an untreated control (water), metal salt solutions (0.2% zinc oxide or 0.1% zinc oxide/0.05% zinc citrate mixture), amino acid solutions (0.3% arginine, 1% arginine, or 0.94% lysine), or metal-amino acid complex solutions (1.2% zinc-lysine complex, 1.33% zinc-arginine complex, or 1% copper-lysine complex) as described in the present disclosure. The solutions were incubated for 15 minutes at room temperature in culture dish wells, then photographs were taken.

A. viscous bacteria = assay: Quantitative bacterial aggregation by absorbance at 610 nm, A. viscous; format: cell-based; conditions: for final test result, absorbance at 610 nm: A. viscous, end of experiment
Streptococcus oralis = assay: Quantitative bacterial aggregation by absorbance at 610 nm, S. oralis; format: cell-based; conditions: for OD610: 0.9% NaCl; for change in OD (610 nm) over the course of the experiment / time by which significant drop in absorbance has occurred / time of peak of absorbance: S. oralis; for change in OD (610 nm) over the course of the experiment: about one hour
Method: To evaluate the aggregation quantitatively, Streptococcus oralis bacteria was suspended in sterile 0.9% NaCl medium in capped culture tubes. To each tube, a different test sample was added, and the absorbance of the medium at […] was monitored over a period of about one hour. Bacteria of this size will remain suspended in solution for several hours before settling out under gravity. This gives such a solution a uniform haziness or opacity that can be quantified by measuring the absorbance of the solution at 610 nm. The aggregation of bacteria results in clumps of bacterial matter, which initially raises absorbance, followed by a sharp drop in absorbance as the bacterial matter settles out, leaving an increasingly transparent solution. Therefore, a decrease in absorbance signals the formation of bacterial aggregates.

[2] = Stability of ZLC in solution (low-pH preparation); format: physicochemical; conditions: final reaction mixture, clear, slightly acidic pH (<pH 7)
Method: In an alternative method, lysine HCl (2 molar equivalents) is dissolved in deionized water with stirring at room temperature. Concentrated hydrochloric acid equal to approximately 0.5 molar equivalent is added to the reaction mixture. ZnO (1 molar equivalent) is then added to the reaction mixture, and the mixture is stirred until complete dissolution occurs, typically within a minutes to a few hours. The pH of the reaction is kept at 6 or below. The ZLC complex can be kept in solution in the final reaction mixture, which is clear, for more than 3 months at slightly acidic pH (i.e., <pH 7) without precipitation of ZnO. Alternatively, the reaction mixture can be spray dried to yield ZLC powder, or the reaction mixture can be adjusted to a near-neutral pH (e.g., 6.8), and the crystalline salt of ZLC can be isolated upon slow evaporation of the concentrated ZLC reaction mixture.

[3] = 0.2% zinc oxide, 0.1% zinc oxide/0.05% zinc citrate, 0.3% arginine, 0.94% lysine, 1.2% zinc-lysine, 1.33% zinc-arginine, 1% copper-lysine
[4] = 1 minute, 1.5% arginine, 0.94% lysine, 0.35% ZnCl2, 1.2% Zn-Lysine, 1.33% Zn-Arg
[5] = 14 minutes, 1.5% arginine, 0.94% lysine, 0.35% ZnCl2, 1.2% Zn-Lysine, 1.33% Zn-Arg
[6] = 27 minutes, 1.5% arginine, 0.94% lysine, 0.35% ZnCl2, 1.2% Zn-Lysine, 1.33% Zn-Arg
[7] = 46 minutes, 1.5% arginine, 0.94% lysine, 0.35% ZnCl2, 1.2% Zn-Lysine, 1.33% Zn-Arg
[8] = 66 minutes, 1.5% arginine, 0.94% lysine, 0.35% ZnCl2, 1.2% Zn-Lysine, 1.33% Zn-Arg
[9] = 1 minute, 1.5% arginine, 0.94% lysine, 0.35% ZnCl2, 1.2% Zn-Lys, 1.33% Zn-Arg
[10] = 9 minutes, 1.5% arginine, 0.94% lysine, 0.35% ZnCl2, 1.2% Zn-Lys, 1.33% Zn-Arg
[11] = 21 minutes, 1.5% arginine, 0.94% lysine, 0.35% ZnCl2, 1.2% Zn-Lys, 1.33% Zn-Arg
[12] = 28 minutes, 1.5% arginine, 0.94% lysine, 0.35% ZnCl2, 1.2% Zn-Lys, 1.33% Zn-Arg
[13] = 40 minutes, 1.5% arginine, 0.94% lysine, 0.35% ZnCl2, 1.2% Zn-Lys, 1.33% Zn-Arg
[14] = 55 minutes, 1.5% arginine, 0.94% lysine, 0.35% ZnCl2, 1.2% Zn-Lys, 1.33% Zn-Arg
[15] = 1.5% arginine, 0.94% lysine, 0.35% zinc chloride, 1.2% zinc-lysine complex, 1.33% zinc-arginine complex
[16] = 1.2% zinc-lysine complex, 1.33% zinc-arginine complex

## copper-lysine complex
[1]; [3]
  observation of aggregate formation in saliva: Large aggregates of material slowly formed and settled to the bottom of the dishes

## N=C(N)NCCC[C@H](N)C(=O)O [Arginine, arginine]
A. viscous bacteria; [4]
  OD610: 0.438
A. viscous bacteria; 1 minute, 5% arginine
  OD610: 0.341
A. viscous bacteria; [5]
  OD610: 0.432
A. viscous bacteria; 14 minutes, 5% arginine
  OD610: 0.334
A. viscous bacteria; [6]
  OD610: 0.427
A. viscous bacteria; 27 minutes, 5% arginine
  OD610: 0.335
A. viscous bacteria; [7]
  OD610: 0.418
A. viscous bacteria; 46 minutes, 5% arginine
  OD610: 0.333
A. viscous bacteria; [8]
  OD610: 0.424
A. viscous bacteria; 66 minutes, 5% arginine
  OD610: 0.333
Streptococcus oralis; [9]
  OD610: 0.492
Streptococcus oralis; 1 minute, 5% arginine
  OD610: 0.496
Streptococcus oralis; [10]
  OD610: 0.473
Streptococcus oralis; 9 minutes, 5% arginine
  OD610: 0.468
Streptococcus oralis; [11]
  OD610: 0.455
Streptococcus oralis; 21 minutes, 5% arginine
  OD610: 0.450
Streptococcus oralis; [12]
  OD610: 0.449
Streptococcus oralis; 28 minutes, 5% arginine
  OD610: 0.446
Streptococcus oralis; [13]
  OD610: 0.441
Streptococcus oralis; 40 minutes, 5% arginine
  OD610: 0.440
Streptococcus oralis; [14]
  OD610: 0.428
Streptococcus oralis; 55 minutes, 5% arginine
  OD610: 0.435
Streptococcus oralis; [15]
  change in OD (610 nm) over the course of the experiment: no appreciable change in OD (610 nm) or a rise in OD (610 nm)
Streptococcus oralis; 5% arginine
  change in OD (610 nm) over the course of the experiment: no appreciable change in OD (610 nm) or a rise in OD (610 nm)
[1]; [3]
  observation of aggregate formation in saliva: no change was observed compared to the negative control
[1]; 1% arginine
  observation of aggregate formation in saliva: no change was observed compared to the negative control

## Cl.Cl.NCCCCC(N)C(=O)[O-].NCCCCC(N)C(=O)[O-].O.O.[Zn+2] (centres unmarked) [ZLC, zinc-lysine-chloride complex]
A. viscous bacteria; [4]
  OD610: 0.454
A. viscous bacteria; [5]
  OD610: 0.554
A. viscous bacteria; [6]
  OD610: 0.175
A. viscous bacteria; [7]
  OD610: 0.032
A. viscous bacteria; [8]
  OD610: 0.014
A. viscous bacteria
  final test result, absorbance at 610 nm: nearly zero absorbance
[2]
  time kept in solution without precipitation of ZnO: more than 3 months
Streptococcus oralis; [9]
  OD610: 0.549
Streptococcus oralis; [10]
  OD610: 0.551
Streptococcus oralis; [11]
  OD610: 0.574
Streptococcus oralis; [12]
  OD610: 0.515
Streptococcus oralis; [13]
  OD610: 0.357
Streptococcus oralis; [14]
  OD610: 0.182
Streptococcus oralis; [15]
  change in OD (610 nm) over the course of the experiment: peak of absorbance at about 21 minutes, followed by a significant drop
Streptococcus oralis; [16]
  time by which significant drop in absorbance has occurred: about 55 minutes
  time of peak of absorbance: about 21 minutes
[1]; [3]
  observation of aggregate formation in saliva: Large aggregates of material slowly formed and settled to the bottom of the dishes

## zinc-arginine complex [Zn-Arg]
A. viscous bacteria; [4]
  OD610: 0.436
A. viscous bacteria; [5]
  OD610: 0.474
A. viscous bacteria; [6]
  OD610: 0.623
A. viscous bacteria; [7]
  OD610: 0.369
A. viscous bacteria; [8]
  OD610: 0.025
A. viscous bacteria
  final test result, absorbance at 610 nm: nearly zero absorbance
Streptococcus oralis; [9]
  OD610: 0.563
Streptococcus oralis; [10]
  OD610: 0.568
Streptococcus oralis; [11]
  OD610: 0.575
Streptococcus oralis; [12]
  OD610: 0.620
Streptococcus oralis; [13]
  OD610: 0.616
Streptococcus oralis; [14]
  OD610: 0.361
Streptococcus oralis; [15]
  change in OD (610 nm) over the course of the experiment: brief rise in absorbance which peaks at about 28 minutes, followed by a significant drop in absorbance
Streptococcus oralis; [16]
  time by which significant drop in absorbance has occurred: about 55 minutes
  time of peak of absorbance: about 28 minutes
[1]; [3]
  observation of aggregate formation in saliva: Large aggregates of material slowly formed and settled to the bottom of the dishes

## NCCCC[C@H](N)C(=O)O [Lysine, lysine]
A. viscous bacteria; [4]
  OD610: 0.416
A. viscous bacteria; [5]
  OD610: 0.413
A. viscous bacteria; [6]
  OD610: 0.411
A. viscous bacteria; [7]
  OD610: 0.410
A. viscous bacteria; [8]
  OD610: 0.409
Streptococcus oralis; [9]
  OD610: 0.537
Streptococcus oralis; [10]
  OD610: 0.547
Streptococcus oralis; [11]
  OD610: 0.552
Streptococcus oralis; [12]
  OD610: 0.553
Streptococcus oralis; [13]
  OD610: 0.555
Streptococcus oralis; [14]
  OD610: 0.555
Streptococcus oralis; [15]
  change in OD (610 nm) over the course of the experiment: no appreciable change in OD (610 nm) or a rise in OD (610 nm)
[1]; [3]
  observation of aggregate formation in saliva: no change was observed compared to the negative control

## [O]=[Zn] [zinc oxide]
[1]; [3]
  observation of aggregate formation in saliva: only undissolved and/or precipitated metal salt

## [Cl-].[Cl-].[Zn+2] [ZnCl2, zinc chloride]
A. viscous bacteria; [4]
  OD610: 0.315
A. viscous bacteria; [5]
  OD610: 0.315
A. viscous bacteria; [6]
  OD610: 0.316
A. viscous bacteria; [7]
  OD610: 0.391
A. viscous bacteria; [8]
  OD610: 0.255
Streptococcus oralis; [9]
  OD610: 0.572
Streptococcus oralis; [10]
  OD610: 0.584
Streptococcus oralis; [11]
  OD610: 0.615
Streptococcus oralis; [12]
  OD610: 0.680
Streptococcus oralis; [13]
  OD610: 0.652
Streptococcus oralis; [14]
  OD610: 0.397
Streptococcus oralis; [15]
  change in OD (610 nm) over the course of the experiment: no appreciable change in OD (610 nm) or a rise in OD (610 nm)
